Tested on: Cryptosporidium parvum
Assay: In vivo model of Tzipori (1998), modified: orally infected baby mice treated for 8 days
Set-up: species or system C57B1/6 baby mice
Conditions: aurintricarboxylic acid 50 and 100 mmol/kg/day orally in 2 equal portions at 12-hr intervals, suckling C57B1/6 mice infected with 100 000 oocysts
Excerpt: In vivo model designed by Tzipori (1998) was used in following modification: Three-day-old, SPF C57B1/6 baby mice (Velaz, Czech Republic) were randomly assigned to groups of 8-9 mice. The baby mice were caged with their mother in sterile microisolators equipped with filter tops under standard conditions. 4-day-old mice were orally infected with 100 000 oocysts and the treatment was initiated at the same time; the daily dose of aurintricarboxylic acid 50 and […] was divided into 2 equal portions and orally administered in 12-hr intervals. A control group received phosphate buffer saline, and paromomycin (100 mg/kg/day) was used as positive control. ATA was prepared fresh before each use by dissolving the drug in aqueous solution of sodium hydroxide or potassium hydroxide at a molar ratio of 1:3 (ATA:NaOH), or in dimethylsulfoxide. […] Intensity of infection was expressed as the number of oocysts in homogenized intestinal tract in the 9th day after infection. The experiment was repeated between 2006 and 2007 and always gave very similar results.
The inihibition aurintricarboxylic acid on experimental Cryptosporidium parvum-infection in suckling C57B16 mice is graphed in FIG. 1.

Compound: O=C(O)C1=CC(=C(c2ccc(O)c(C(=O)O)c2)c2ccc(O)c(C(=O)O)c2)C=CC1=O [aurintricarboxylic acid]
- tolerability of the treatment (visible signs of toxicity): tolerated without any visible signs of toxicity
